This note sets out measurements from patent US20100273833A1, “2-SULFINYL- AND 2-SULFONYL-SUBSTITUTED IMIDAZOLE DERIVATIVES AND THEIR USE AS CYTOKINE INHIBITORS” (priority 2005, published 2010).

Converted amounts (≈) assume the structure as drawn. Structures can show the parent of a compound that is named as a salt.

By melting point is commonly meant the temperature, or range, at which the solid turns liquid.

The nature of one series: Solubility in water. The series is classed as physicochemical.
Series [1] is described as follows: In vitro metabolism, incubation with rat liver microsomes. In kind it is in vitro ADME. To be noted: phosphate buffer pH 7.4, NADPH, 37° C., HPLC peak areas. On the procedure:
The test substances were incubated in standard experiments with rat liver microsomes (phosphate buffer with pH 7.4, NADPH, 37° C.). The biotransformations were stopped after 0, 15, 30 and 60 min by adding acetonitrile and were centrifuged, and the protein-free supernatant was analyzed by HPLC. Resulting metabolites were approximately quantified via the peak areas. The result of the biotransformation of Example 12 and of the corresponding sulfanyl compound, which is representative in terms of the sulfinyl/sulfanyl substitution comparison, is described by way of example. The sulfanyl compound was rapidly converted into a number of metabolites and, after 30 min, less than 1% of the pharmacologically active starting substance remained. Under identical experimental conditions, about 70% of the initial amount of Example 12 were still present after 30 min, and more than 50% were still present after 60 min.

`CC(=O)Nc1cc(-c2c(-c3ccc(F)cc3)nc([S+](C)[O-])n2C)ccn1` (stereo not drawn) [Example 3 methane sulfonate, N-{4-[5-(4-Fluorophenyl)-2-methanesulfinyl-3-methyl-3H-imidazol-4-yl]pyridin-2-yl}acetamide] returned a solubility in water in the series “Solubility in water” of 0.89 mg/mL.

For `CC(=O)Nc1cc(-c2c(-c3ccc(F)cc3)nc([S+](C)[O-])n2C)ccn1` (stereo not drawn) [Example 3 sulfate, N-{4-[5-(4-Fluorophenyl)-2-methanesulfinyl-3-methyl-3H-imidazol-4-yl]pyridin-2-yl}acetamide], the solubility in water in the series “Solubility in water” is 0.31 mg/mL.

In the case of `COCCn1c([S+](C)[O-])nc(-c2ccc(F)cc2)c1-c1ccnc(NC(C)C)c1` (stereo not drawn) [Example 12, {4-[5-(4-Fluorophenyl)-2-methanesulfinyl-3-(2-methoxyethyl)-3H-imidazol-4-yl]pyridin-2-yl}isopropylamine], the “initial amount of starting substance still present after 30 min” value in series [1] (30 min) is “about 70%”. In addition, the “initial amount still present after 60 min” value in series [1] (60 min) is “more than 50%”.

Take `CC(=O)Nc1cc(-c2c(-c3ccc(F)cc3)nc([S+](C)[O-])n2C)ccn1` (stereo not drawn) [Example 3 hydrochloride, N-{4-[5-(4-Fluorophenyl)-2-methanesulfinyl-3-methyl-3H-imidazol-4-yl]pyridin-2-yl}acetamide]: the solubility in water in “Solubility in water” stood at 1.12 mg/mL.

In the case of `Fc1ccc(-c2nc3n(c2-c2ccnc(Nc4ccccc4)c2)CCS3)cc1` [Example 34, {4-[6-(4-Fluorophenyl)-2,3-dihydro-imidazo[2,1-b]thiazol-5-yl]-pyridin-2-yl}-phenyl-amine], the melting point worked out at 298.7 °C.

In the case of `CC(=O)Nc1cc(-c2c(-c3ccc(F)cc3)nc([S+](C)[O-])n2C)ccn1` (stereo not drawn) [Example 3 hydrogensulfate, N-{4-[5-(4-Fluorophenyl)-2-methanesulfinyl-3-methyl-3H-imidazol-4-yl]pyridin-2-yl}acetamide], the solubility in water in the series “Solubility in water” is 0.39 mg/mL (≈ 1050 µM).

Compound `CC(=O)Nc1cc(-c2c(-c3ccc(F)cc3)nc([S+](C)[O-])n2C)ccn1` (stereo not drawn) [Example 3, N-{4-[5-(4-Fluorophenyl)-2-methanesulfinyl-3-methyl-3H-imidazol-4-yl]pyridin-2-yl}acetamide] had a solubility in water in the series “Solubility in water” of 0.07 mg/mL (≈ 188 µM).

As for `CC(=O)Nc1cc(-c2c(-c3ccc(F)cc3)nc([S+](C)[O-])n2C)ccn1` (stereo not drawn) [Example 3 hydrobromide, N-{4-[5-(4-Fluorophenyl)-2-methanesulfinyl-3-methyl-3H-imidazol-4-yl]pyridin-2-yl}acetamide], the solubility in water in the series “Solubility in water” worked out at 1.05 mg/mL.
